Literature values, collected in patent US11666686B2, “Amtimicrobial silicones” (WYNNVISION, LLC, priority 2020, dated 2023).

pKa: ~10
SMILES: CCCCCCCCCCCCCCN(C)C [C14, N,N-dimethyltetradecylamine]
